From US6177475A, “Methods of using integrin modulators for treatment of inflammation” (priority 1997, dated 2001)
Read-outs that look alike come from different tables or passages of the source.

Key:
[1] = system: SupT1LAV-BRU cells / SupT1 cells (HIV-1LAV-BRU); assay: HIV-induced syncytium formation, SupT1LAV-BRU donor with SupT1 recipient; type: cell-based; settings: Human immunodeficiency virus 1, SUP-T1, 16 h, read-out: IC50 of Ajoene, syncytium formation
Experimental: Chronically infected and uninfected cell lines (HIV donors and targets, respectively) were maintained as suspension cultures in RPNI-1640 medium supplemented with 10% (v/v) heat-inactivated fetal calf serum, 50 micrograms/ml gentamycin and 2 mM L-glutamine. HIV donors used were (1) a cloned population of H9 cells harboring the genome of HIV-1RF (H9RF cells); and (2) a cloned population of SupT1 cells harboring the genome of HIV-1LAV-BRU (SupT1LAV-BRU cells). To assess the effect of Ajoene on syncytium formation, the donors were mixed with their respective recipients, H9 and SupT1, at a ratio of 1:2 in 96-well flat-bottomed plates (3×10^5 cells per well). Log 10 dilutions of Ajoene were then introduced into the wells, and the cells were cocultured for 16 h. Control wells received the vehicle of Ajoene. By the end of the incubation period syncytia were counted, and the values of IC50 for Ajoene were calculated by plotting relative amounts of syncytia (percent of the syncytia formed in the absence of the compound) against Ajoene concentration.

[2] = system: platelets (GP IIb/IIIa); assay: Platelet aggregation in platelet-rich plasma (turbidimetric); type: cell-based; settings: 1:1 mixture of E- and Z-stereoisomers, read-out: IC50 for inhibition of platelet aggregation in PRP
Experimental: Platelet aggregation was measured turbidimetrically on a standard platelet aggregometer equipped with a recorder. Samples of platelet-rich plasma (PRP) were standardized with respect to the cell density (3×10^8per ml); maximal light transmission (LT) was calibrated with platelet-poorplasma (PPP). Aliquots of PRP (0.25 ml in glass cuvettes) were stirred in the cell of the device (1000 rpm, 37° C.) with Ajoene (0-100 micromoles per liter final concentration) for 1 min., followed by addition of the aggregation stimuli. (Unless specified otherwise, all the experiments described in this Application were performed with Ajoene that represented a 1:1 mixture of E- and Z-stereoisomers.) LT increments were traced for 5 min. Maximal rate of aggregation was derived from the slope of each curve; IC50 for Ajoene was determined by a method such as that described in Vrzheshch, et al., Cell Response Kinetics: the Phenomenon of Supercooperativity in Aggregation of Human Platelets, 66 Thrombos. Res. 537, 1992.
The requirement of integrins for the formation of cell-to-cell contacts in each of these systems has long been established. It is known that in platelets the relevant integrin is GP IIb/IIIa (β3). […]

[3] = system: Jurkat cells; assay: Disruption of cell clusters formed by Jurkat cells in culture; type: cell-based; settings: Homo sapiens, 16 to 24 h
Experimental: T-lymphocytic H9 and Jurkat cells were maintained as suspension cultures in RPMI-1640 medium supplemented with 10% (v/v) heat-inactivated fetal calf serum, 50 micrograms/ml gentamycin and 2 mM L-glutamine. To assess the effects of Ajoene on adhesive interactions of the cells, H9 cells or Jurkat cells were seeded in 96-well flat-bottomed plates (3×10^5cells per well) and cultured in the presence of log 10 dilutions of Ajoene (experiment) or its vehicle (control) for 16 to 24 h.
The requirement of integrins for the formation of cell-to-cell contacts in each of these systems has long been established. It is known that in platelets the relevant integrin is GP IIb/IIIa (β3). Neutrophil aggregation is underlain by interactions of β2 integrins (e.g., LFA-1 and/or Mac-1) with their surface counterstructures, while cohesion of T-cells is supported by both β2 integrins and fibronectin-binding β1 integrins (e.g., VLA-4 and VLA-5).

[4] = system: WI-38 cells; type: cell-based, human
[5] = system: HIV-1LAV-BRU 1; assay: HIV-1LAV-BRU 1 replication in CEM13 cells (HIV antigens by solid phase immunoassay); type: cell-based; settings: for IC50: Human immunodeficiency virus 1, CEM13 cells
[6] = system: HIV-1 strain IIIB; assay: Protection of MT-4 cells against infection with free HIV (PCR for proviral DNA); type: cell-based; settings: Human immunodeficiency virus 1, IIIB, MT4, 16 hours
Experimental: The effect of Ajoene in protecting against HIV infection was evaluated using polymerase chain reaction (PCR) analysis which recognized amplified DNA sequences of HIV gag gene. MT-4 cells were used as target cells and strain IIIB of HIV-1 was used as inoculate. Serial dilutions of Ajoene or an equivalent volume of its vehicle were added to MT-4 cells, followed by addition of a sufficient amount of free virus (≥10^3 particles per cell). The protective effect of Ajoene was monitored by examining for the absence or presence of proviral HIV DNA in target cells 16 hours after the inoculation.

[7] = system: 51Cr-labeled monocytes; assay: Monocyte recruitment to inflamed skin; type: in vivo, rat; settings: 50 mg/kg i.v.; for Accumulation of 51Cr-labeled Monocytes (mean ± SEM): 2 h
From the text: Chemotactic factors (e.g., C5adesArg) and cytokines, such as tumor necrosis factor α (TNF) or interferon gamma (IFN), induce rapid cutaneous inflammatory reactions, when injected intradermally. These inflammatory reactions are characterized by integrin-mediated migration of ^51 Cr-labeled monocytes and ^111 In-labeled neutrophils. The mechanisms of leukocyte recruitment to the inflammatory loci differ, however, in that chemotactic factors act primarily on leukocytes (by upregulating integrins), whereas TNF and IFN activate endothelial cells (which results, inter alia, in rapid expression of integrin ligands, such as ICAM-1 and VCAM-1).
Agents used for the induction of the inflammation included rat IFN, recombinant mouse TNF (Genentech, South San Francisco, Calif.), and Zymozan-activated serum (ZAS). ZAS, a source of C5adesArg, was generated by activating complement in normal rat serum with 5 mg/ml of Zymozan A (Sigma Chemical Company, St. Louis, Mo.) at 37° C. for 60 min, after which the zymozan was removed.
Rat monocytes and neutrophils were isolated and labeled as described in Example 6, supra. Male Lewis rats were administered intravenously with 50 mg/kg Ajoene (treatment group) or its vehicle (control), followed within 2-3 min by infusion of the labeled cells. Immediately afterwards, the skin on the back of all animals was shaved and the inflammatory stimuli and the diluent control were injected intradermally at several sites of the skin of each animal. Two hours later, 1 ml of blood was taken from each rat, and the animals were sacrificed. The dorsal skin, including the area of dermal inflammatory reactions, was removed and frozen, and the injected skin sites were punched out with a 12-mm punch and counted in a gamma spectrometer (model 1280, LXB Instruments).

[8] = system: melanoma B16 cells; assay: Melanoma cell implantation (subcutaneous B16); type: in vivo, C57BL/6 mice; settings: Mus musculus, sc; B16 cells pretreated 15 min; tumor volume at 14 and 21 days
Experimental: Male C57BL/6 mice were inoculated subcutaneously with 10^6 B16 cells (pretreated for 15 min with Ajoene) in their pretreatment medium, and the volume of the tumors formed was measured 14 and 21 days after the injection.

C=CCSSC=CC[S+]([O-])CC=C (stereo not shown) [Ajoene, 4,5,9-trithiadodeca-1,6,11-triene-9-oxide]
IC50 [1]: ~0.005 µM | IC50 [2]: ~50 µM | IC50 [3]: ~0.05 µM | toxicity [4]: no detectable toxicity | inhibition of HIV replication, stepwise addition ([5]; 50 nanomoles per liter per 12 h, total 0.25 micromoles per liter, m.o.i. 0.1, 72 h): 30% | IC50 ([5]; HIV-1Lav-BRU1, read-out: IC50 of HIV replication (FIG. 1, curve 2)): ~5 µM | IC50 ([5]; m.o.i. 0.1, 72 h, read-out: IC50 for HIV-1LAV-BRU 1 replication): ~5 µM | IC50 [6]: 5 µM | IC100 ([6]; read-out: minimal dose completely preventing HIV infection): 17 µM | Accumulation of 51Cr-labeled Monocytes (mean ± SEM) ([7]; 10 ng TNF, P < 0.002): 1,274 cpm per inflammatory locus | inhibition of monocyte migration to loci of acute cutaneous inflammation [7]: 50-75% | Accumulation of 51Cr-labeled Monocytes (mean ± SEM) ([7]; 25% ZAS, P < 0.020): 944 cpm per inflammatory locus | Accumulation of 51Cr-labeled Monocytes (mean ± SEM) ([7]; 50% ZAS, P < 0.002): 1,268 cpm per inflammatory locus | Accumulation of 51Cr-labeled Monocytes (mean ± SEM) ([7]; 300 U IFN, P < 0.001): 468 cpm per inflammatory locus | Accumulation of 51Cr-labeled Monocytes (mean ± SEM) ([7]; diluent control stimulus, N.S.): 15 cpm per inflammatory locus | IC50 [8]: 2.5 µM
